The text below walks through data of PubChem BioAssay AID220 (DTP/NCI, 2004).

Several values for one entry are separate records, joined by “and”; a condition that tells them apart may be missing. Equal entries are not always repeated. Records with an inconclusive call do not appear. Positions of bridges follow the written chain, without caps; N, C: chain ends. Non-standard residues stand in square brackets, D forms with d. Residues, ends and D or L forms follow the SMILES beside them. Chains are numbered I, II in the order given. *: point of attachment. Quinoxaline2carbonyl = O=C(c1cnc2ccccc2n1)*; NMeV = CN[CH](C(=O)O)C(C)C; NMeC = CN[CH](CS)C(=O)O

The test system of this assay is CD8F1 mice, subcutaneous mammary adenocarcinoma, T/C%. Nature of the assay: NCI In Vivo Anticancer Drug Screen. Data for tumor model Mammary Adenocarcinoma CD8F1 (subcutaneous) in CD8F1. The conditions noted are these: higher = larger tumour. The gist of the method:
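Antitumor activity is assessed in transplantable-tumor mice by comparing the treated group with a vehicle-treated control group. Survival or tumor size serves as the measure, reported as T divided by C.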

Setting [1] is: endpoint: median tumor weight (est.), dose: 200.0 mg/kg/injection, schedule: Q07DX005 (ip), vehicle: suspension in saline.

On to `COC1=C(NC(C)=O)C(=O)c2nc(-c3nc(C(=O)O)c(C)c(-c4ccc(OC)c(OC)c4O)c3N)ccc2C1=O`, for which the T/C (endpoint: median tumor weight change, dose: 12.5 mg/kg/injection, schedule: Q01DX001 (ip), vehicle: Klucel (hydroxypropylcellulose) (HPC)) is 171 % of control.

On to `Nc1cc2[nH]cnc2c(=O)[nH]1`, for which the T/C was 83 % of control (endpoint: mean tumor weight, dose: 20.0 mg/kg/injection, schedule: Q07DX006 (ip), vehicle: saline); 50 % of control (endpoint: mean tumor weight, dose: 40.0 mg/kg/injection, schedule: Q07DX006 (ip), vehicle: saline); 76 % of control (endpoint: mean tumor weight, dose: 80.0 mg/kg/injection, schedule: Q07DX006 (ip), vehicle: saline); 56 % of control (endpoint: median tumor weight (est.), dose: 12.5 mg/kg/injection, schedule: Q07DX005 (ip), vehicle: suspension in saline); 79 % of control (endpoint: median tumor weight (est.), dose: 25.0 mg/kg/injection, schedule: Q07DX005 (ip), vehicle: suspension in saline); 56 % of control (endpoint: median tumor weight (est.), dose: 50.0 mg/kg/injection, schedule: Q07DX005 (ip), vehicle: suspension in saline). In addition, the T/C (endpoint: median tumor weight (est.), dose: 100.0 mg/kg/injection, schedule: Q07DX005 (ip), vehicle: suspension in saline) was 80 % of control and the T/C under setting [1] is 64 % of control.

Turning to `S=P(N1CC1)(N1CC1)N1CC1`, the T/C (endpoint: mean tumor weight, dose: 1.0 mg/kg/injection, schedule: Q01DX009 (ip), vehicle: saline) is 45 % of control; the T/C (endpoint: mean tumor weight, dose: 2.0 mg/kg/injection, schedule: Q01DX009 (ip), vehicle: saline) is 7 % of control; the T/C (endpoint: mean tumor weight, dose: 4.0 mg/kg/injection, schedule: Q07DX005 (ip), vehicle: saline) is 354 % of control; the T/C (endpoint: mean tumor weight, dose: 4.0 mg/kg/injection, schedule: Q07DX006 (ip), vehicle: saline) was 20 % of control; the T/C (endpoint: mean tumor weight, dose: 4.0 mg/kg/injection, schedule: Q07DX007 (ip), vehicle: saline) was 1 % of control; the T/C (endpoint: mean tumor weight, dose: 8.0 mg/kg/injection, schedule: Q07DX005 (ip), vehicle: saline) is 597 % of control. In addition, the T/C (endpoint: mean tumor weight, dose: 8.0 mg/kg/injection, schedule: Q07DX006 (ip), vehicle: saline) is 3 % of control; the T/C (endpoint: mean tumor weight, dose: 8.0 mg/kg/injection, schedule: Q07DX007 (ip), vehicle: saline) is 6 % of control; the T/C (endpoint: mean tumor weight, dose: 16.0 mg/kg/injection, schedule: Q07DX005 (ip), vehicle: saline) is 61 % of control; the T/C (endpoint: median tumor weight (est.), dose: 0.5 mg/kg/injection, schedule: Q07DX005 (ip), vehicle: saline) is 96 % of control; the T/C (endpoint: median tumor weight (est.), dose: 1.0 mg/kg/injection, schedule: Q07DX005 (ip), vehicle: saline) was 157 % of control; the T/C (endpoint: median tumor weight (est.), dose: 2.0 mg/kg/injection, schedule: Q07DX005 (ip), vehicle: saline) was 159 % of control. Further, the T/C by setting is: (endpoint: median tumor weight (est.), dose: 4.0 mg/kg/injection, schedule: Q07DX005 (ip), vehicle: saline) 42 % of control; (endpoint: median tumor weight (est.), dose: 8.0 mg/kg/injection, schedule: Q07DX005 (ip), vehicle: saline) 15 % of control.

For the compound `CCCCCCCC(=O)N/N=C(\CO)[C@]1(O)Cc2c(O)c3c(c(O)c2[C@@H](OC2CC(N)C(O)C(C)O2)C1)C(=O)c1c(OC)cccc1C3=O` (stereo not given in full), the T/C reads like this: (endpoint: median tumor weight (est.), dose: 1.5 mg/kg/injection, schedule: Q07DX005 (ip), vehicle: saline) 76 % of control; (endpoint: median tumor weight (est.), dose: 3.0 mg/kg/injection, schedule: Q07DX005 (ip), vehicle: saline) 110 % of control; (endpoint: median tumor weight (est.), dose: 6.0 mg/kg/injection, schedule: Q07DX005 (ip), vehicle: saline) 37 % of control; (endpoint: median tumor weight (est.), dose: 12.0 mg/kg/injection, schedule: Q07DX005 (ip), vehicle: saline) 4 % of control.

`Cc1cc2nc3c(=O)[nH]c(=O)nc-3n(CC(O)C(O)C(O)C(O)CO)c2cc1C` (stereo not given): the T/C reads like this: under setting [1], 87 % of control and 100 % of control; (endpoint: median tumor weight (est.), dose: 400.0 mg/kg/injection, schedule: Q07DX005 (ip), vehicle: suspension in saline) 58 % of control and 64 % of control.

With `NC1(C(=O)O)CCCC1`, the T/C was 89 % of control (endpoint: mean tumor weight, dose: 5.0 mg/kg/injection, schedule: Q01DX009 (ip), vehicle: saline); 30 % of control (endpoint: mean tumor weight, dose: 10.0 mg/kg/injection, schedule: Q01DX009 (ip), vehicle: saline); 40 % of control (endpoint: mean tumor weight, dose: 12.5 mg/kg/injection, schedule: Q07DX005 (ip), vehicle: saline); 104 % of control (endpoint: mean tumor weight, dose: 12.5 mg/kg/injection, schedule: Q07DX007 (ip), vehicle: saline); 5 % of control (endpoint: mean tumor weight, dose: 20.0 mg/kg/injection, schedule: Q01DX009 (ip), vehicle: saline); 81 % of control (endpoint: mean tumor weight, dose: 25.0 mg/kg/injection, schedule: Q07DX004 (ip), vehicle: saline). Further, the T/C is, setting by setting: (endpoint: mean tumor weight, dose: 25.0 mg/kg/injection, schedule: Q07DX005 (ip), vehicle: saline) 122 % of control; (endpoint: mean tumor weight, dose: 25.0 mg/kg/injection, schedule: Q07DX007 (ip), vehicle: saline) 123 % of control; (endpoint: mean tumor weight, dose: 25.0 mg/kg/injection, schedule: Q07DX008 (ip), vehicle: saline) 119 % of control; (endpoint: mean tumor weight, dose: 50.0 mg/kg/injection, schedule: Q07DX004 (ip), vehicle: saline) 6 % of control; (endpoint: mean tumor weight, dose: 50.0 mg/kg/injection, schedule: Q07DX005 (ip), vehicle: saline) 9 % of control; (endpoint: mean tumor weight, dose: 50.0 mg/kg/injection, schedule: Q07DX007 (ip), vehicle: saline) 5 % of control. For the same compound, the T/C is 43 % of control (endpoint: mean tumor weight, dose: 50.0 mg/kg/injection, schedule: Q07DX008 (ip), vehicle: saline); 39 % of control (endpoint: median tumor weight (est.), dose: 25.0 mg/kg/injection, schedule: Q07DX005 (ip), vehicle: saline); 28 % of control (endpoint: median tumor weight (est.), dose: 50.0 mg/kg/injection, schedule: Q07DX005 (ip), vehicle: saline).

In the case of `CC1NC(=O)C(NC(=O)c2cnc3ccccc3n2)COC(=O)C(C(C)C)N(C)C(=O)C2CSSCC(C(=O)N(C)C(C(C)C)C(=O)OCC(NC(=O)c3cnc4ccccc4n3)C(=O)NC(C)C(=O)N2C)N(C)C1=O` (stereo not given) (I: Quinoxaline2carbonyl-SA[NMeC][NMeV] / II: Quinoxaline2carbonyl-SA[NMeC][NMeV]; ester I:1-II:C, I:C-II:1; disulfide I:3-II:3; configuration not given here), the T/C (endpoint: median tumor weight change, dose: 25.0 micrograms/kg/injection, schedule: Q01DX001 (ip), vehicle: Klucel (hydroxypropylcellulose) (HPC)) was 77 % of control; the T/C (endpoint: median tumor weight change, dose: 50.0 micrograms/kg/injection, schedule: Q01DX001 (ip), vehicle: Klucel (hydroxypropylcellulose) (HPC)) was 91 % of control; the T/C (endpoint: median tumor weight change, dose: 100.0 micrograms/kg/injection, schedule: Q01DX001 (ip), vehicle: Klucel (hydroxypropylcellulose) (HPC)) was 89 % of control; the T/C (endpoint: median tumor weight change, dose: 200.0 micrograms/kg/injection, schedule: Q01DX001 (ip), vehicle: Klucel (hydroxypropylcellulose) (HPC)) is 68 % of control; the T/C (endpoint: median tumor weight change, dose: 400.0 micrograms/kg/injection, schedule: Q01DX001 (ip), vehicle: Klucel (hydroxypropylcellulose) (HPC)) is 59 % of control.

For `OCC12COCN1COC2`, the T/C (endpoint: median tumor weight change, dose: 50.0 mg/kg/injection, schedule: Q01DX001 (ip), vehicle: saline) was 100 % of control; the T/C (endpoint: median tumor weight change, dose: 100.0 mg/kg/injection, schedule: Q01DX001 (ip), vehicle: saline) was 107 % of control; the T/C (endpoint: median tumor weight change, dose: 200.0 mg/kg/injection, schedule: Q01DX001 (ip), vehicle: saline) is 71 % of control; the T/C (endpoint: median tumor weight change, dose: 400.0 mg/kg/injection, schedule: Q01DX001 (ip), vehicle: saline) is 87 % of control; the T/C (endpoint: median tumor weight change, dose: 800.0 mg/kg/injection, schedule: Q01DX001 (ip), vehicle: saline) was 82 % of control.

For the compound `CCCCCCCCCCCCCCCCCCCCCC(=O)Nc1ccn(C2OC(CO)C(O)C2O)c(=O)n1` (stereo not given), the T/C was 104 % of control (endpoint: median tumor weight (est.), dose: 12.5 mg/kg/injection, schedule: Q07DX005 (ip), vehicle: saline with Tween-80); 68 % of control (endpoint: median tumor weight (est.), dose: 25.0 mg/kg/injection, schedule: Q07DX005 (ip), vehicle: saline with Tween-80); 75 % of control (endpoint: median tumor weight (est.), dose: 50.0 mg/kg/injection, schedule: Q07DX005 (ip), vehicle: saline with Tween-80); 69 % of control (endpoint: median tumor weight (est.), dose: 100.0 mg/kg/injection, schedule: Q07DX005 (ip), vehicle: saline with Tween-80); 49 % of control (endpoint: median tumor weight (est.), dose: 200.0 mg/kg/injection, schedule: Q07DX005 (ip), vehicle: saline with Tween-80); 53 % of control (endpoint: median tumor weight (est.), dose: 400.0 mg/kg/injection, schedule: Q07DX005 (ip), vehicle: saline with Tween-80).

For `CC(=O)[C@]1(O)Cc2c(O)c3c(c(O)c2[C@@H](OC2CC(N)C(O)C(C)O2)C1)C(=O)c1c(O)cccc1C3=O` (stereo not given in full), the T/C (endpoint: median tumor weight (est.), dose: 0.6 mg/kg/injection, schedule: Q07DX005 (ip), vehicle: water) was 96 % of control.

Regarding `CC[C@](C)(O)C(=O)O[C@H]1C(=O)O[C@@H]2C[C@H]3C(C)=CC(=O)[C@@H](O)[C@]3(C)[C@H]3[C@@]4(O)OC[C@]32[C@@H]1[C@@H](C)[C@H]4O`, the T/C was 116 % of control (endpoint: median tumor weight (est.), dose: 0.06 mg/kg/injection, schedule: Q07DX005 (ip), vehicle: Klucel (hydroxypropylcellulose) (HPC)); 108 % of control (endpoint: median tumor weight (est.), dose: 0.12 mg/kg/injection, schedule: Q07DX005 (ip), vehicle: Klucel (hydroxypropylcellulose) (HPC)); 73 % of control (endpoint: median tumor weight (est.), dose: 0.5 mg/kg/injection, schedule: Q07DX005 (ip), vehicle: Klucel (hydroxypropylcellulose) (HPC)); 79 % of control (endpoint: median tumor weight change, dose: 1.0 mg/kg/injection, schedule: Q01DX001 (ip), vehicle: Klucel (hydroxypropylcellulose) (HPC)).
